Results from patent US7625567B1, “Induction of immune responses to isoaspartyl-modified antigens” (Yale University, priority 2001, dated 2009).
Numbered stars: 1 amine (or outer) side, 2 acyl side, 3 side chain; on linkers, the order of the positions; unused ones are H or OH. Square brackets hold non-standard residues; d marks the D form. Ends that are not written are not given here. βAsp = O=C(O)[C@H](CC(=O)[*:2])N[*:1]

How the values were obtained:
[1] = tested on: B16 melanoma cells; assay: Isoaspartyl content of living B16 melanoma cells after adenosine dialdehyde treatment (ISOQUANT assay); format: cell-based, murine; conditions: 30 μM adenosine dialdehyde, 48 h
Description: Isoaspartyl residues were detected by the enzyme, protein isoaspartyl methyltransferase, according to the manufacturer's protocol (ISOQUANT™ Protein Deamidation Detection Kit, Promega Corp., Madison, Wis.). In brief, samples and control peptides are incubated 30 min. at 30 C in a reaction mixture containing protein isoaspartyl methyltransferase, [^3H}S-adenosyl-L-methionine, and cold S-adenyl-L-methionine. The reaction is stopped at pH 10 on ice and volatile [^3H]methanol is condensed in the reaction vessel. Fifty μl of sample is adsorbed to a sponge attached to the cap of a scintillation vial. The sample is incubated 60 min. at 40 C to volatize [^3H]methanol into the scintillation mixture and counted for counts/min. […]
Briefly, selected cells, such as B16-F0 melanoma cells, are grown to confluency. The cells are then exposed to trypsin and counted. […] The cells are next harvested using trypsin, washed, and counted. […] Protein concentration is determined in both the supernatant and the pellet. Isoaspartyl generation is determined by ISOQUANT assay described above.
In cell culture, B16 cells were incubated with 30 μM adenosine dialdehyde for 48 h as described above. […] Isoaspartyl content was determined as described above.

[2] = tested on: TRP-2 specific CD8 T cells; assay: MHC class I (H-2 Kb) TRP-2 tetramer staining of CD8 T cells after immunization; format: in vivo, mice; conditions: 50 μg s.c. in CFA, day 14 lymph node cells, 5 day culture with isoaspartyl TRP-2 10 μg/ml
Description: FIG. 9 illustrates that CD8 T cells specific for the TRP-2 peptide are elicited by immunization with isoaspartyl TRP-2 peptide. Mice were immunized subcutaneously with 50 μg of isoaspartyl TRP-2 emulsified in CFA. At day 14 after immunization, lymph node cells were removed and single cell suspensions (4×10^6 cells/ml) were incubated in culture with isoaspartyl TRP-2 peptide (10 μg/ml) for 5 days (37° C., 5% CO2). Living cells were purified by Ficoll-hypaque and incubated with anti-CD8-FITC antibody (Promega Inc.) and MHC class I (H-2 Kb) tetramers linked to PE, as indicated. Tetramer staining was performed with a control, non-specific peptide (SIINFEKL) (SEQ ID NO:4) and with aspartyl and isoaspartyl TRP-2 peptide tetramers, as indicated.

[3] = tested on: TRP-2 peptide pulsed syngeneic spleen cells; assay: In vivo CTL assay: killing of tumor peptide pulsed target cells; set-up: species or system mice; conditions: 50 μg in CFA s.c., day 21, 16 hours
Description: In this approach, groups of 6 mice were immunized with isoaspartyl or aspartyl TRP-2 (50 μg in CFA), by subcutaneous route. At day 21 mice were examined for their ability to kill tumor peptide pulsed target cells (in vivo CTL assays) modified by the protocol of Coles, et al. (J. Immunol. 168:834-838 (2002)). In brief, two populations of syngeneic target spleen cells are labeled with low or high concentrations of CFSE (0.5 μM or 5.0 μM CFSE, respectively). Spleen cells labeled with 5.0 μM CFSE are pulsed with isoaspartyl or aspartyl TRP-2 peptide (1 μg/ml) as the in vivo target cell population. Both high CFSE labeled/TRP-2 peptide pulsed and low CFSE labeled/unpulsed spleen cells (1×10^7 cells for each population) are transferred by intravenous route into immunized mice as described above. Mice were sacrificed at 16 hours and in vivo lysis of peptide pulsed targets is defined by flow cytometry technology as: Ratio=% CFSE low/% CFSE high % Specific Killing=[1−(ratio in control immunized/ratio in immunized)×100].

[4] = tested on: B16F10 melanoma tumor masses; assay: CD8 T cell influx into B16F10 melanoma tumor tissue (immunohistochemistry); format: in vivo, mice; conditions: 50 μg in CFA s.c.; challenge day 21 with 0.5×10^6 B16F10 cells; tumors day 14 after challenge
Description: FIG. 11 illustrates an influx of CD8 T cells into melanoma tumor tissues of mice immunized with isoaspartyl TRP-2 immunized mice. […] For these studies, mice were immunized with isoaspartyl or aspartyl TRP-2 (50 μg in CFA), by subcutaneous route. At day 21, mice were challenged with 0.5×10^6 B16F10 melanoma cells by subcutaneous route. At day 14 after tumor cell challenge, tumor masses were removed and stain for CD8 T cells by conventional immunohistochemistry.

[5] = tested on: CD8 T cells stimulated with isoaspartyl or aspartyl TRP-2 pulsed APCs; assay: CD8 T cell proliferation after immunization with TRP-2 peptide; format: in vivo, C57B1/6 mice; conditions: 50 μg peptide s.c. in CFA, day 7 lymph node CD8 T cells
Description: FIG. 7 illustrates that immunization with isoaspartyl TRP-2 peptide elicits CD8 T cells that proliferate in response to stimulation with isoaspartyl or aspartyl TRP-2 peptide. For these studies, C57B1/6 mice are immunized subcutaneously with 50 μg of either isoaspartyl TRP-2 peptide or aspartyl TRP-2 peptide emulsified in complete Freund's adjuvant (CFA). After 7 days, lymph node cells are collected and CD8 T cells are purified by magnetic bead depletion of CD4+, B220+, CD11c+ cells. CD8 T cells (1×10^5) are incubated for 3 days in tissue culture (37° C., 5% CO2) with irradiated splenic antigen presenting cells (APCs; 5×10^5 cells) pulsed with isoaspartyl TRP-2 or aspartyl TRP-2 in the concentrations as indicated.

[6] = tested on: B16F10 melanoma cells; assay: Anti-tumor antibody response: serum binding to B16F10 cells by flow cytometry; format: in vivo, mice; conditions: 50 μg peptide s.c., serum day 28, 1/100 dilution, anti-mouse IgG-FITC
Description: FIG. 8 illustrates that immunization with isoaspartyl TRP-2 elicits anti-tumor antibody responses. Mice were immunized subcutaneously with 50 μg of isoaspartyl or aspartyl TRP-2 peptide, as indicated. Mice were bled at day 28 post immunization. Serum (1/100 dilutions in phosphate buffered saline (PBS)) was incubated with B16F10 melanoma cells (5×10^5 cells) and analyzed by flow cytometry after the detection of bound antibody with anti-mouse IgG-FITC.

[7] = tested on: EL-4 target cells pulsed with TRP-2; assay: Cytotoxicity of CD8 T cells from immunized mice against peptide-pulsed EL-4 target cells (Cytotox 96); format: in vivo; conditions: 50 μg in CFA s.c.; effector to target ratios 5:1, 10:1, 20:1; EL-4 targets
Description: FIG. 10 illustrates that immunization with isoaspartyl TRP-2 peptide elicits CD8 T cells that kill tumor peptide bearing target cells. Mice were immunized with isoaspartyl or aspartyl TRP-2 (50 μg in CFA), by subcutaneous route. Lymph node cells were expanded in vitro for 5 days with isoaspartyl TRP-2 as described above. After 5 days, purified effector CD8 T cells were mixed with EL-4 target cells pulsed with isoaspartyl TRP-2, aspartyl TRP-2, or unpulsed EL-4 cells, as indicated. Averages of triplicate cultures are reported for effector to target ratios of 5:1, 10:1, and 20:1. Cytotoxicity was performed by commercial non-radioactive methods (Ctyotox 96, Promega, Inc.) according to the manufacturer's instructions. As indicated in the upper panel of FIG. 10, mice immunized with isoaspartyl TR-2 peptide kill up to 35% of TRP-2 pulsed target cells.

[8] = tested on: B16F10 tumor cells; assay: Survival of immunized mice challenged with B16F10 tumor cells; format: in vivo; conditions: 50 μg in CFA s.c.; challenge s.c. day 21 with 0.5×10^6 cells; groups of 10 mice
Description: For these studies, groups of 10 mice were immunized with isoaspartyl or aspartyl TRP-2 (50 μg in CFA), by subcutaneous route as described above. Mice were challenged subcutaneously at day 21 with 0.5×10^6 cells. Survival was assessed every 3 days.

[9] = tested on: B and T cell compartments; conditions: mice immunized with peptide (Mamula et al. 1999); cited from earlier work
[10] = target cells transferred: Asp TRP-2 pulsed
[11] = target cells transferred: Isoasp TRP-2 pulsed

| Compound | isoaspartyl content compared to untreated B16 cells [1] | TRP-2 specific CD8 T cells bound by aspartyl and isoaspartyl TRP-2 tetramers [2] | % Specific Killing [3, 10] [%] | % Specific Killing [3, 11] [%] | influx of CD8 T cells into tumor masses [4] | CD8 T cell response to stimulation with isoaspartyl or aspartyl TRP-2 peptide [5] | anti-tumor antibodies binding B16F10 cells [6] | killing of TRP-2 pulsed target cells [7] | survival after B16F10 challenge [8] | B and T cell response to immunization [9] |
| --- | --- | --- | --- | --- | --- | --- | --- | --- | --- | --- |
| Nc1ncnc2c1ncn2C(C=O)OC(C=O)CO (centres unmarked) [adenosine dialdehyde] | enhanced from two to five fold |  |  |  |  |  |  |  |  |  |
| Aspartyl TRP-2: TRP-2 peptide (sequence 181-188) synthesized with an aspartic acid residue at 183 (SEQ ID NO:2) (VYDFFVWL; Human) |  | failed to stimulate TRP-2 specific CD8 T cells | 5 | 22 | fail to show CD8 T cells in the tumor masses | fails to elicit any detectable T cell responses | little or no anti-tumor antibodies are detected | fail to elicit cytotoxic T cell responses |  |  |
| Isoaspartyl TRP-2: TRP-2 peptide (sequence 181-188) synthesized with an isoaspartyl amino acid modification at residue 183 (SEQ ID NO:3) (VY[βAsp]FFVWL) |  | profoundly stimulated the growth of CD8 T cells that were bound by aspartyl and isoaspartyl TRP-2 tetramers | 56 | 60 | significant influx of CD8 T cells | elicits cross reactive T cells that respond to stimulation with either isoaspartyl or aspartyl TRP-2 peptide | effectively bind B16F10 cells | up to 35% | greater survival as compared to mice immunized with aspartyl TRP-2 or CFA control immunizations |  |
| murine cytochrome c peptide 90-104: murine cytochrome c peptide 90-104, normal aspartyl form (ERADLIAYLKKATNE; UniProt P62897 91-105, looked up, fragment) |  |  |  |  |  |  |  |  |  | no response by the B or T cell compartments |
